From patent US9125849B2, “TOMM34 peptides and vaccines including the same” (ONCOTHERAPY SCIENCE, INC., priority 2010, dated 2015)
Non-standard residues stand in square brackets, D forms with d. No end group written: not given here.

Columns and labels:
peptide-pulsed T2 cells [1] = assay: CTL line activity, IFN-gamma ELISA; type: cell-based, human; settings: CTL line stimulated with peptide; target cells pulsed with peptide vs without peptide pulse
Protocol: CTLs were expanded in culture using the method similar to the one described by Riddell et al. (Walter E A et al., N Engl J Med 1995 Oct. 19, 333(16): 1038-44; Riddell S R et al., Nat Med 1996 February, 2(2): 216-23). A total of 5×10^4 CTLs were suspended in 25 ml of AIM-V/5% AS medium with 2 kinds of human B-lymphoblastoid cell lines, inactivated by Mitomycin C, in the presence of 40 ng/ml of anti-CD3 monoclonal antibody (Pharmingen). One day after initiating the cultures, 120 IU/ml of IL-2 were added to the cultures. The cultures were fed with fresh AIM-V/5% AS medium containing 30 IU/ml of IL-2 on days 5, 8 and 11 (Tanaka H et al., Br J Cancer 2001 Jan. 5, 84(1): 94-9; Umano Y et al., Br J Cancer 2001 Apr. 20, 84(8): 1052-7; Uchida N et al., Clin Cancer Res 2004 Dec. 15, 10(24): 8577-86; Suda T et al., Cancer Sci 2006 May, 97(5): 411-9; Watanabe T et al., Cancer Sci 2005 August, 96(8): 498-506).
(§1) Peptide-pulsed T2 (1×10^4/well) was prepared as stimulator cells. Cultured cells in 48 wells were used as responder cells. IFN-gamma ELISPOT assay and IFN-gamma ELISA assay were performed under manufacture procedure.

peptide-pulsed T2 cells [2] = assay: CTL clone activity, IFN-gamma ELISA; type: cell-based, human; settings: CTL clone established by limiting dilution from the CTL line; target cells pulsed with peptide; listed as TOMM34-A02-9-30
Protocol: The dilutions were made to have 0.3, 1, and 3 CTLs/well in 96 round-bottomed micro titer plate (Nalge Nunc International). CTLs were cultured with 1×10^4 cells/well of 2 kinds of human B-lymphoblastoid cell lines, 30 ng/ml of anti-CD3 antibody, and 125 U/ml of IL-2 in a total of […] of AIM-V Medium containing 5% AS. 50 micro-1/well of IL-2 were added to the medium 10 days later so to reach a final concentration of 125 U/ml IL-2. CTL activity was tested on the 14th day, and CTL clones were expanded using the same method as described above (Uchida N et al., Clin Cancer Res 2004 Dec. 15, 10(24): 8577-86; Suda T et al., Cancer Sci 2006 May, 97(5): 411-9; Watanabe T et al., Cancer Sci 2005 August, 96(8): 498-506).
as §1

peptide-pulsed T2 cells [3] = assay: In vitro CTL induction, IFN-gamma ELISPOT assay; type: cell-based, human; settings: CTLs induced with peptide-pulsed DCs from HLA-A*0201 positive donor, vs target cells not pulsed with peptide
Excerpt: Monocyte-derived dendritic cells (DCs) were used as antigen-presenting cells to induce cytotoxic T lymphocyte (CTL) responses against peptides presented on human leukocyte antigen (HLA). DCs were generated in vitro as described elsewhere (Nakahara S et al., Cancer Res 2003 Jul. 15, 63(14): 4112-8). Specifically, peripheral blood mononuclear cells isolated from a normal volunteer (HLA-A*0201 positive) by Ficoll-Paque plus (Pharmacia) solution were separated by adherence to a plastic tissue culture dish (Becton Dickinson) so as to enrich them as the monocyte fraction. The monocyte-enriched population was cultured in the presence of 1000 U/ml of granulocyte-macrophage colony-stimulating factor (R&D System) and 1000 U/ml of interleukin (IL)-4 (R&D System) in AIM-V Medium (Invitrogen) containing 2% heat-inactivated autologous serum (AS). After 7 days of culture, the cytokine-induced DCs were pulsed with 20 micro-g/ml of each of the synthesized peptides in the presence of 3 micro-g/ml of beta 2-microglobulin for 3 hr at 37 degrees C. in AIM-V Medium. The generated cells appeared to express DC-associated molecules, such as CD80, CD83, CD86 and HLA class II, on their cell surfaces (data not shown). These peptide-pulsed DCs were then inactivated by X ray-irradiated (20 Gy) and mixed at a 1:20 ratio with autologous CD8+ T cells, obtained by positive selection with CD8 Positive Isolation Kit (Dynal). These cultures were set up in 48-well plates (Corning); each well contained 1.5×10^4 peptide-pulsed DCs, 3×10^5 CD8+ T cells and 10 ng/ml of IL-7 (R&D System) in 0.5 ml of AIM-V/2% AS medium. Three days later, these cultures were supplemented with IL-2 (CHIRON) to a final concentration of 20 IU/ml. On day 7 and 14, the T cells were further stimulated with the autologous peptide-pulsed DCs. The DCs were prepared each time by the same way described above. CTL was tested against peptide-pulsed T2 cells after the 3rd round of peptide stimulation on day 21 (Tanaka H et al., Br J Cancer 2001 Jan. 5, 84(1): 94-9; Umano Y et al., Br J Cancer 2001 Apr. 20, 84(8): 1052-7; Uchida N et al., Clin Cancer Res 2004 Dec. 15, 10(24): 8577-86; Suda T et al., Cancer Sci 2006 May, 97(5): 411-9; Watanabe T et al., Cancer Sci 2005 August, 96(8): 498-506).
as §1

[4] = system: COS7 cells transfected with both TOMM34 and HLA-A*0201; assay: Specific CTL activity against target cells expressing TOMM34 and HLA-A*0201; type: cell-based, African green monkey; settings: COS7 cells expressing both TOMM34 and HLA-A*0201; listed as TOMM34-A02-9-30
Excerpt: (§2) The cDNA encoding an open reading frame of target genes or HLA-A*0201 was amplified by PCR. The PCR-amplified product was cloned into expression vector. The plasmids were transfected into COS7, which is the target genes and HLA-A*0201-null cell line, using lipofectamine 2000 (Invitrogen) according to the manufacturer's recommended procedures. After 2 days from transfection, the transfected cells were harvested with versene (Invitrogen) and used as the stimulator cells (5×10^4 cells/well) for CTL activity assay.
(§3) The established CTL line raised against TOMM34-A02-9-30 (SEQ ID NO: 1) peptide was examined for the ability to recognize target cells that express TOMM34 and HLA-A*0201 molecule. COS7 cells transfected with both the full length of TOMM34 and HLA-A*0201 gene (a specific model for the target cells that express TOMM34 and HLA-A*0201 gene) were prepared as stimulator cells, and COS7 cells transfected with either full length of TOMM34 or HLA-A*0201 were used as the controls.

[5] = system: COS7 cells transfected with either full length of TOMM34 or HLA-A*0201; assay: Specific CTL activity against control target cells; type: cell-based, African green monkey; settings: control COS7 cells expressing either HLA-A*0201 or TOMM34
Excerpt: as §2, §3

ALYGRALRV [SEQ ID NO: 1]
IFN-gamma production of the CTL line by IFN-gamma ELISA (peptide-pulsed T2 cells [1]): potent IFN-gamma production
IFN-gamma production of the CTL clone by IFN-gamma ELISA (peptide-pulsed T2 cells [2]): potent IFN-gamma production
peptide specific CTL activity (IFN-gamma production) by IFN-gamma ELISPOT (peptide-pulsed T2 cells [3]): potent IFN-gamma production
specific CTL activity of the CTL line [4]: potent CTL activity
specific CTL activity of the CTL line [5]: no significant specific CTL activity was detected

ALYGrALRVL (ALYG[code r]ALRVL; not fully specified; printed as ALYGrALRVL) [SEQ ID NO: 31]
peptide specific CTL activity (IFN-gamma production) by IFN-gamma ELISPOT (peptide-pulsed T2 cells [3]): potent IFN-gamma production

KLPSiPLVPV (KLPS[code i]PLVPV; not fully specified; printed as KLPSiPLVPV) [SEQ ID NO: 21]
peptide specific CTL activity (IFN-gamma production) by IFN-gamma ELISPOT (peptide-pulsed T2 cells [3]; listed as TOMM34-A02-10-143): specific IFN-gamma production was not observed

LLCSNLESA [SEQ ID NO: 5]
peptide specific CTL activity (IFN-gamma production) by IFN-gamma ELISPOT (peptide-pulsed T2 cells [3]): potent IFN-gamma production

LLCSnLESAT (LLCS[code n]LESAT; not fully specified; printed as LLCSnLESAT) [SEQ ID NO: 32]
peptide specific CTL activity (IFN-gamma production) by IFN-gamma ELISPOT (peptide-pulsed T2 cells [3]): potent IFN-gamma production
